# Several values for one entry are separate records, joined by “and”; a condition that tells them apart may be missing. Equal entries are not always repeated.
# Tested on: NCI-H929 complex spheroids, viability % test/control
# Assay: Anticancer human tumor NCI-H929 cell line growth inhibition [RAS];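 also: compound exposure lasted seven days before viability was read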;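 as to viability, T/C: 100% = DMSO vehicle control viability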
# Conditions: for viability, T/C: stronger effect = lower value
# How it was run: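 Agents were tested in combination matrices in half-log decrements from a top concentration at or near clinical Cmax (10 microM if undetermined). Targets were multi-cell spheroids of tumour lines plus HUVEC and MSC stromal cells.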
smiles,measurement,setting,value
CCN1CCN(Cc2ccc(Nc3ncc(F)c(-c4cc(F)c5nc(C)n(C(C)C)c5c4)n3)nc2)CC1 + C=CC(=O)N1CCN(c2nc(OCC3CCCN3C)nc3c(F)c(-c4nc(N)cc(C)c4C(F)(F)F)c(Cl)cc23)C(C)C1,IC50,"curve of first compound, second compound 0.00316 µM",> 1000 nM
same,IC50,"curve of first compound, second compound 0.01 µM",> 1000 nM
same,IC50,"curve of first compound, second compound 0.0316 µM",> 1000 nM
same,IC50,"curve of first compound, second compound 0.1 µM",> 1000 nM
same,IC50,"curve of first compound, second compound 0.316 µM",> 1000 nM
same,IC50,"curve of first compound, second compound 1 µM",> 1000 nM
same,"viability, T/C","second compound 0.00316 µM, first compound 0.00316 µM",99.6%
same,"viability, T/C","second compound 0.00316 µM, first compound 0.01 µM",97.4%
same,"viability, T/C","second compound 0.00316 µM, first compound 0.0316 µM",108%
same,"viability, T/C","second compound 0.00316 µM, first compound 0.1 µM",103%
same,"viability, T/C","second compound 0.00316 µM, first compound 0.316 µM",117%
same,"viability, T/C","second compound 0.00316 µM, first compound 1 µM",107%
same,"viability, T/C","second compound 0.01 µM, first compound 0.00316 µM",100%
same,"viability, T/C","second compound 0.01 µM, first compound 0.01 µM",105%
same,"viability, T/C","second compound 0.01 µM, first compound 0.0316 µM",105%
same,"viability, T/C","second compound 0.01 µM, first compound 0.1 µM",109%
same,"viability, T/C","second compound 0.01 µM, first compound 0.316 µM",118%
same,"viability, T/C","second compound 0.01 µM, first compound 1 µM",115%
same,"viability, T/C","second compound 0.0316 µM, first compound 0.00316 µM",102%
same,"viability, T/C","second compound 0.0316 µM, first compound 0.01 µM",103%
same,"viability, T/C","second compound 0.0316 µM, first compound 0.0316 µM",112%
same,"viability, T/C","second compound 0.0316 µM, first compound 0.1 µM",109%
same,"viability, T/C","second compound 0.0316 µM, first compound 0.316 µM",119%
same,"viability, T/C","second compound 0.0316 µM, first compound 1 µM",113%
same,"viability, T/C","second compound 0.1 µM, first compound 0.00316 µM",95.8%
same,"viability, T/C","second compound 0.1 µM, first compound 0.01 µM",105%
same,"viability, T/C","second compound 0.1 µM, first compound 0.0316 µM",108%
same,"viability, T/C","second compound 0.1 µM, first compound 0.1 µM",112%
same,"viability, T/C","second compound 0.1 µM, first compound 0.316 µM",119%
same,"viability, T/C","second compound 0.1 µM, first compound 1 µM",111%
same,"viability, T/C","second compound 0.316 µM, first compound 0.00316 µM",102%
same,"viability, T/C","second compound 0.316 µM, first compound 0.01 µM",105%
same,"viability, T/C","second compound 0.316 µM, first compound 0.0316 µM",113%
same,"viability, T/C","second compound 0.316 µM, first compound 0.1 µM",113%
same,"viability, T/C","second compound 0.316 µM, first compound 0.316 µM",119%
same,"viability, T/C","second compound 0.316 µM, first compound 1 µM",115%
same,"viability, T/C","second compound 1 µM, first compound 0.00316 µM",108%
same,"viability, T/C","second compound 1 µM, first compound 0.01 µM",111%
same,"viability, T/C","second compound 1 µM, first compound 0.0316 µM",112%
same,"viability, T/C","second compound 1 µM, first compound 0.1 µM",114%
same,"viability, T/C","second compound 1 µM, first compound 0.316 µM",120%
same,"viability, T/C","second compound 1 µM, first compound 1 µM",101%
CC1(O)CCCC1n1c(=O)c(C(F)F)cc2cnc(NC3CCN(S(C)(=O)=O)CC3)nc21 (stereo not drawn),"viability, T/C",compound 0.0316 µM,116% and 105% and 113% (2×)
same,"viability, T/C",compound 0.316 µM,4.47% [middle of 4 runs]
same,"viability, T/C",compound 1 µM,9.4% [middle of 4 runs]
same,"viability, T/C",compound 3.16 µM,2.17% [middle of 4 runs]
same,"viability, T/C",compound 10 µM,0.2% and 0.16% and 0.08%
same,IC50,curve of compound,189 nM [middle of 4 runs]
CCN1CCN(Cc2ccc(Nc3ncc(F)c(-c4cc(F)c5nc(C)n(C(C)C)c5c4)n3)nc2)CC1,"viability, T/C",compound 0.00316 µM,106% [middle of 4 runs]
same,"viability, T/C",compound 0.01 µM,101% (2×) and 100% and 102%
same,"viability, T/C",compound 0.0316 µM,108% [middle of 4 runs]
same,"viability, T/C",compound 0.1 µM,107% (2×) and 98.7% and 108%
same,"viability, T/C",compound 0.316 µM,117% (2×) and 102% and 115%
same,IC50,curve of compound,> 1000 nM and 774 nM and 695 nM
C=CC(=O)N1CCN(c2nc(OCC3CCCN3C)nc3c(F)c(-c4nc(N)cc(C)c4C(F)(F)F)c(Cl)cc23)C(C)C1 (stereo not drawn) + CCn1c(-c2cccnc2C(C)OC)c2c3cc(ccc31)N1CCOC(CC(NC(=O)C(C(C)C)N(C)C(=O)C3(F)CCN(C(=O)C#CC(C)(C)N(C)C)CC3)C(=O)N3CCCC(N3)C(=O)OCC(C)(C)C2)C1,IC50,"curve of first compound, second compound 0.000949 µM",> 1000 nM
same,IC50,"curve of first compound, second compound 0.003 µM",> 1000 nM
same,IC50,"curve of first compound, second compound 0.00949 µM",> 1000 nM
same,IC50,"curve of first compound, second compound 0.03 µM",> 1000 nM
same,IC50,"curve of first compound, second compound 0.0949 µM",> 1000 nM
same,IC50,"curve of first compound, second compound 0.3 µM",> 1000 nM
same,"viability, T/C","second compound 0.000949 µM, first compound 0.00316 µM",104%
same,"viability, T/C","second compound 0.000949 µM, first compound 0.01 µM",103%
same,"viability, T/C","second compound 0.000949 µM, first compound 0.0316 µM",103%
same,"viability, T/C","second compound 0.000949 µM, first compound 0.1 µM",104%
same,"viability, T/C","second compound 0.000949 µM, first compound 0.316 µM",102%
same,"viability, T/C","second compound 0.000949 µM, first compound 1 µM",105%
same,"viability, T/C","second compound 0.003 µM, first compound 0.00316 µM",104%
same,"viability, T/C","second compound 0.003 µM, first compound 0.01 µM",105%
same,"viability, T/C","second compound 0.003 µM, first compound 0.0316 µM",101%
same,"viability, T/C","second compound 0.003 µM, first compound 0.1 µM",102%
same,"viability, T/C","second compound 0.003 µM, first compound 0.316 µM",107%
same,"viability, T/C","second compound 0.003 µM, first compound 1 µM",104%
same,"viability, T/C","second compound 0.00949 µM, first compound 0.00316 µM",104%
same,"viability, T/C","second compound 0.00949 µM, first compound 0.01 µM",101%
same,"viability, T/C","second compound 0.00949 µM, first compound 0.0316 µM",106%
same,"viability, T/C","second compound 0.00949 µM, first compound 0.1 µM",107%
same,"viability, T/C","second compound 0.00949 µM, first compound 0.316 µM",106%
same,"viability, T/C","second compound 0.00949 µM, first compound 1 µM",105%
same,"viability, T/C","second compound 0.03 µM, first compound 0.00316 µM",102%
same,"viability, T/C","second compound 0.03 µM, first compound 0.01 µM",99.7%
same,"viability, T/C","second compound 0.03 µM, first compound 0.0316 µM",106%
same,"viability, T/C","second compound 0.03 µM, first compound 0.1 µM",105%
same,"viability, T/C","second compound 0.03 µM, first compound 0.316 µM",106%
same,"viability, T/C","second compound 0.03 µM, first compound 1 µM",107%
same,"viability, T/C","second compound 0.0949 µM, first compound 0.00316 µM",102%
same,"viability, T/C","second compound 0.0949 µM, first compound 0.01 µM",103%
same,"viability, T/C","second compound 0.0949 µM, first compound 0.0316 µM",106%
same,"viability, T/C","second compound 0.0949 µM, first compound 0.1 µM",104%
same,"viability, T/C","second compound 0.0949 µM, first compound 0.316 µM",107%
same,"viability, T/C","second compound 0.0949 µM, first compound 1 µM",104%
same,"viability, T/C","second compound 0.3 µM, first compound 0.00316 µM",102%
same,"viability, T/C","second compound 0.3 µM, first compound 0.01 µM",104%
same,"viability, T/C","second compound 0.3 µM, first compound 0.0316 µM",106%
same,"viability, T/C","second compound 0.3 µM, first compound 0.1 µM",107%
same,"viability, T/C","second compound 0.3 µM, first compound 0.316 µM",107%
same,"viability, T/C","second compound 0.3 µM, first compound 1 µM",103%
C=CC(=O)Nc1cc(Nc2nccc(-c3cn(C)c4ccccc34)n2)c(OC)cc1N(C)CCN(C)C,"viability, T/C",compound 0.00316 µM,103% (2×) and 109% and 105%
same,"viability, T/C",compound 0.01 µM,99.4% [middle of 4 runs]
same,"viability, T/C",compound 0.0316 µM,107% [middle of 4 runs]
same,"viability, T/C",compound 0.1 µM,99% [middle of 4 runs]
same,"viability, T/C",compound 0.316 µM,105% [middle of 4 runs]
same,"viability, T/C",compound 1 µM,105% [middle of 4 runs]
same,IC50,curve of compound,> 1000 nM
